Reference: patent publication US20240262856A1, “NOVEL SPINOSYN COMPOUNDS” (priority 2021, published 2024)
In brackets after ≈: the same amount, converted by molar mass. Like-named read-outs stand apart in the source and are kept apart here.

Key:
Kinetic solubility assay = format: physicochemical; conditions: 24 hours at room temperature (25±2° C.)
Description: Solubility of the compounds of the invention was assessed using kinetic solubility assay and compared to solubility of butenyl spinosyn. Stock solutions of spinosyn compounds were prepared in DMSO at 10 mM concentration). 10 uL of the stock solutions were added into 490 of in K.S. 5.4 buffer of pH 5.4 (80 mM phosphoric acid, acetic acid, boric acid buffer, adjusted the pH to pH 5.4 with 1 N HCl and 1N NaOH) or K.S. 7.4 buffer with pH of 7.4 (80 mM phosphoric acid, acetic acid, boric acid buffer, adjusted the pH to pH 7.4 with 1 N HCl and 1N NaOH). The solutions were incubated with shaking at room temperature (25±2° C.) for 24 hours. 200 uL of each solution were then transferred into a new MultiScreen filter plate (Membrane of polycarbonate) and filtered by millipore vacuum manifold, and the filtrate was collected. The concentrations of tested compounds in the filtered samples were analyzed by HPLC analysis calibrated by a standard curve generated by injection of 3 standard solutions of the relevant compound with concentrations of 1, 20, 200 μM.

[1] = test system: honey bees (Apis melifera carnica, Pollman 1879); assay: Single dose acute oral toxicity test on adult worker honey bees; format: in vivo
Description: Toxicity of the compounds of this invention towards honey bees (Apis melifera carnica, Pollman 1879) was assessed in comparison with commercially available samples of spinosad (LGC (Dr. Ehrenstorfer); Product code: DRE-C16972830) and the naturally produced compound butenyl spinosyn alpha 1. Solutions of spinosyn compounds were prepared in 100 mM ammonium acetate, pH=5, and later diluted in 50% (500 g/L) sucrose solution in water to final concentrations. Two final concentrations were used for each compound, 7.76 μmol/L and 15.53 μmol/L.
Single dose acute oral toxicity tests were conducted on adult worker bees according to previously described standard methods (Medrzycki at el., (2013)). Each compound and condition were tested in two parallels. Briefly, each parallel experiment consisted of 5 cages with 20 honey bees per cage. […] After uptake of the solutions honey bees were supplied with standard 50% sucrose solution and observed at 24 h and 48 h and the number of dead and live bees was estimated. Ammonium acetate solution with pH 5 was used as the negative control.

[2] = test system: Ostrinia nubilalis larvae; assay: Insecticide efficacy on corn leaves dipped in compound solution and infested with L1 larvae (Henderson-Tilton method); format: in vivo; conditions: for % Efficacy 3 days: 3 days post infestation; for % Efficacy 6 days: 6 days post infestation; for Emax: Ostrinia nubilalis; for insecticidal activity on Ostrinia nubilalis larvae (in words): compared with Spinosad / spinetoram
Description: Insecticide activities of the compounds of this invention were assessed in comparison with commercially available samples of spinosad (LGC (Dr. Ehrenstorfer); Product code: DRE-C16972830) and spinetoram (LGC (Dr. Ehrenstorfer); Product code: DRE-C16972770) Solutions of spinosyn compounds were prepared by adding 0.05% Tween 80, lowering pH to 5.95 and sonicating. Two concentrations of each compound were used, 0.1 μg/mL and 0.3 μg/mL, with each condition tested in four parallels.
Freshly collected corn leaves were dipped into the prepared solutions. After dipping leaves were left to dry at room temperature for 1 hour. Each dry leaf was then infested with 4 larvae (development stage L1), and the experimental device was incubated at 21° C.-23° C. for 24 h in order to optimize insect development. At two timings post infestation (3 days and 6 days), the insecticide efficacy is evaluated from the number of living larvae using the Henderson-Tilton method. Untreated control was integrated for normalization and validation of larvae health.

[3] = UV-stability of 5 mM solutions in acetonitrile, remaining compound by HPLC; format: physicochemical; conditions: for share of remaining compound 0 h: start value for both aliquots; for Purity changing: 0 h to 10 h
Description: Synthesized spinosyn compounds were used to prepare 5 mM solutions in acetonitrile. The solution was divided in 2 aliquots and one aliquot was exposed to UV light at 254 nm and the other aliquot was incubated in the same conditions without UV light exposure. Quantities of remaining starting compounds were determined by HPLC after 0 h, 1 h, 5 h and 10 h.

[4] = test system: honey bees (Apis melifera carnica, Pollman 1879); conditions: previously established oral LD50 for honey bee; cited from earlier work
[5] = 0.078 nmol/bee oral single dose, 24 h after application
[6] = 0.078 nmol/bee oral single dose, 48 h after application
[7] = 0.155 nmol/bee oral single dose, 24 h after application
[8] = 0.155 nmol/bee oral single dose, 48 h after application
[9] = 25 °C, aqueous buffer, kinetic from dmso stock, K.S. 5.4 buffer pH 5.4, dose conc 200 μM, read-out: Kinetic Solubility pH = 5.4
[10] = 25 °C, aqueous buffer, kinetic from dmso stock, K.S. 7.4 buffer pH 7.4, dose conc 200 μM, read-out: Kinetic Solubility pH = 7.4
[11] = 72 h, read-out: % Efficacy 3 days, dose 0.1 μg a.i./ml, 3 days post infestation
[12] = 72 h, read-out: % Efficacy 3 days, dose 0.3 μg a.i./ml, 3 days post infestation
[13] = 144 h, read-out: % Efficacy 6 days, dose 0.1 μg a.i./ml, 6 days post infestation
[14] = 144 h, read-out: % Efficacy 6 days, dose 0.3 μg a.i./ml, 6 days post infestation

Compound | % of surviving honey bees [1, 5] [%] | % of surviving honey bees [1, 6] [%] | % of surviving honey bees [1, 7] [%] | % of surviving honey bees [1, 8] [%] | % Efficacy 3 days ([2]; dose 0.1 μg a.i./ml) [%] | % Efficacy 6 days ([2]; dose 0.1 μg a.i./ml) [%] | % Efficacy 3 days ([2]; dose 0.3 μg a.i./ml) [%] | % Efficacy 6 days ([2]; dose 0.3 μg a.i./ml) [%] | share of remaining compound 0 h [3] [%] | Purity changing ([3]; under UV light at 254 nm) [%] | share of remaining compound 1 h ([3]; under UV light at 254 nm) [%] | share of remaining compound 5 h ([3]; under UV light at 254 nm) [%] | share of remaining compound 10 h ([3]; under UV light at 254 nm) [%] | Purity changing ([3]; without UV) | share of remaining compound 1 h ([3]; without UV) [%] | share of remaining compound 5 h ([3]; without UV) [%] | share of remaining compound 10 h ([3]; without UV) [%] | solubility kinetic at 24 h (Kinetic solubility assay; [9]) [µM] | solubility kinetic at 24 h (Kinetic solubility assay; [10]) [µM] | other results
CCC=CC1CCCC(OC2CCC(N(C)C)C(C)O2)C(C)C(=O)C2=CC3C(C=CC4CC(OC5OC(C)C(OC)C(OC)C5OC)CC43)C2CC(=O)O1 (stereo not drawn) [Butenyl spinosyn, butenyl spinosyn α1, reference compound] | 57 | 37 | 32 | 6 | 33 | 56 | 79 | 100 | 90.0 | −30.4 | 88.6 | 70.9 | 59.6 | −0.6% | 90.6 | 90.7 | 89.4 |  |  | solubility kinetic at 24 h (Kinetic solubility assay; K.S. 5.4 buffer pH 5.4, dose conc 200 μM, read-out: Kinetic Solubility pH = 5.4): 183.17 µM (≈ 139 µg/mL); solubility kinetic at 24 h (Kinetic solubility assay; K.S. 7.4 buffer pH 7.4, dose conc 200 μM, read-out: Kinetic Solubility pH = 7.4): 3.52 µM (≈ 2.67 µg/mL); toxicity to honey bees in acute oral toxicity test (in words) ([1]; compared to the derivatives provided by this invention): higher toxicity to honey bees
spinosad [SPN, reference compound] |  |  |  |  | 25 | 46 | 63 | 100 |  |  |  |  |  |  |  |  |  |  |  | LD50 [4]: 0.057 μg/bee
CC/C=C/[C@H]1CCC[C@H](OC2CCC([N+](C)(C)COC(=O)OC(C)C)C(C)O2)[C@@H](C)C(=O)C2=C[C@@H]3[C@@H](C=CC4(OC)C[C@@H](OC5OC(C)C(OC)C(OC)C5OC)C[C@@H]34)[C@@H]2CC(=O)O1 (stereo partly drawn) [Compound J7-H1] | 87 | 69 | 78 | 30 |  |  |  |  |  |  |  |  |  |  |  |  |  |  |  | 
CC/C=C/[C@H]1CCC[C@H](OC2CCC(N(C)C)C(C)O2)[C@@H](C)C(=O)C2=C[C@@H]3[C@@H](C=C[C@]4(O)C[C@@H](OC5OC(C)C(OC)C(OC)C5OC)C[C@@H]34)[C@@H]2CC(=O)O1 (stereo partly drawn) [Compound A1, 7-hydroxy butenyl spinosyn α1] |  |  |  |  |  |  |  |  | 90.7 | −38.5 | 86.6 | 71.3 | 52.2 | +0.2% | 90.7 | 90.8 | 90.9 | 192 (≈ 149 µg/mL) | 187 (≈ 144 µg/mL) | Emax [2, 11]: 2%; Emax [2, 12]: 15%; Emax [2, 13]: 2%; Emax [2, 14]: 19%
CC[C@H]1CCC[C@H](OC2CCC(N(C)C)C(C)O2)[C@@H](C)C(=O)C2=C[C@@H]3[C@@H](C=C[C@]4(OC)C[C@@H](OC5OC(C)C(OC)C(OC)C5OC)C[C@@H]34)[C@@H]2CC(=O)O1 (stereo partly drawn) [Compound H1a] |  |  |  |  | 15 | 41 | 64 | 93 |  |  |  |  |  |  |  |  |  |  |  | insecticidal activity on Ostrinia nubilalis larvae (in words) [2]: lower insecticidal activity
spinetoram [Spinoteram, reference compound] |  |  |  |  | 58 | 81 | 85 | 96 |  |  |  |  |  |  |  |  |  |  |  | 
CC/C=C/[C@H]1CCC[C@H](OC2CCC(N(C)C)C(C)O2)[C@@H](C)C(=O)C2=C[C@@H]3[C@@H](C=C[C@]4(OCC)C[C@@H](OC5OC(C)C(OC)C(OC)C5OC)C[C@@H]34)[C@@H]2CC(=O)O1 (stereo partly drawn) [Compound H2, 7-ethoxy butenyl spinosyn al] |  |  |  |  |  |  |  |  | 93.2 | −53.5 | 87.6 | 67.8 | 39.7 | −0.9% | 93.6 | 93.7 | 92.3 | 166 (≈ 133 µg/mL) | 7.68 (≈ 6.16 µg/mL) | 
CC/C=C/[C@H]1CCC[C@H](OC2CCC([N+](C)(C)COC(=O)C(C)(C)C)C(C)O2)[C@@H](C)C(=O)C2=C[C@@H]3[C@@H](C=CC4(OC)C[C@@H](OC5OC(C)C(OC)C(OC)C5OC)C[C@@H]34)[C@@H]2CC(=O)O1 (stereo partly drawn) [Compound J1A-H1] | 98 | 73 | 86 | 26 |  |  |  |  |  |  |  |  |  |  |  |  |  |  |  | 
CC/C=C/[C@H]1CCC[C@H](OC2CCC(N(C)C)C(C)O2)[C@@H](C)C(=O)C2=C[C@@H]3[C@@H](C=C[C@]4(OC)C[C@@H](OC5OC(C)C(OC)C(OC)C5OC)C[C@@H]34)[C@@H]2CC(=O)O1 (stereo partly drawn) [Compound H1, 7-methoxy butenyl spinosyn α1] |  |  |  |  |  |  |  |  | 96.0 | −22.5 | 95.6 | 87.5 | 73.5 | +0.7% | 96.5 | 96.9 | 96.7 | 183 (≈ 144 µg/mL) | 77.1 (≈ 60.8 µg/mL) | Emax [2, 11]: 27%; Emax [2, 12]: 58%; Emax [2, 13]: 89%; Emax [2, 14]: 100%; insecticidal activity on Ostrinia nubilalis larvae (in words) [2]: extremely potent insecticidal activity
